From article PMC11659888, “Structural Evidence for DUF512 as a Radical S-Adenosylmethionine Cobalamin-Binding Domain” (ACS Bio & Med Chem Au, 2024)

Key:
pfDUF512 [1] = biological target: T1, pfDUF512 (Pyrococcus furiosus, UniProt Q8U2I5); assay: X-ray crystal structure; format: binding; conditions: 5 mM SAH in crystallisation, anoxic, with [4Fe-4S], cobalamin and 5'-dA; poor density for ribosyl and methionyl moieties
T1 construct: gene PF0849; full length, 358 residues (1-357 modelled); E. coli, SUMO tag cut with Ulp1, one extra N-terminal His left; monomer; [4Fe-4S]
T1 sequence (Q8U2I5 1-357): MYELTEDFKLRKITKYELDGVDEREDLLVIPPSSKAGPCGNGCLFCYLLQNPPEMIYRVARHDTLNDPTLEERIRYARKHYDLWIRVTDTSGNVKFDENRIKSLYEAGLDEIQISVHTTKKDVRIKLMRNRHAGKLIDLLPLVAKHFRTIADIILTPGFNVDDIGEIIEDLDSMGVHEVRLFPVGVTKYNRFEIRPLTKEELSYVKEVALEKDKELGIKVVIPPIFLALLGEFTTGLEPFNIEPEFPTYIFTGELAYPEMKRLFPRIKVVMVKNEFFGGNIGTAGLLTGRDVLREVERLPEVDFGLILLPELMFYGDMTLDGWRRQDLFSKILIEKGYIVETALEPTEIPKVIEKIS

pfDUF512 [2] = biological target: T1, pfDUF512; assay: methylation of bound cobalamin, MeCbl and […]'-dA detected; format: biochemical; conditions: titanium(III) citrate, 5 min
acDUF512 = biological target: T2, acDUF512 (Acinetobacter sp. CAG:196_36_41, UniProt Z9P1A2K5F3); assay: methylation of bound cobalamin, MeCbl, SAH and […]'-dA quantified; format: biochemical; conditions: titanium(III) citrate, 5 min
T2 construct: full-length gene, E. coli, SUMO tag cut with Ulp1; monomer; FeS cluster
T2 sequence (Z9P1A2K5F3 1-422): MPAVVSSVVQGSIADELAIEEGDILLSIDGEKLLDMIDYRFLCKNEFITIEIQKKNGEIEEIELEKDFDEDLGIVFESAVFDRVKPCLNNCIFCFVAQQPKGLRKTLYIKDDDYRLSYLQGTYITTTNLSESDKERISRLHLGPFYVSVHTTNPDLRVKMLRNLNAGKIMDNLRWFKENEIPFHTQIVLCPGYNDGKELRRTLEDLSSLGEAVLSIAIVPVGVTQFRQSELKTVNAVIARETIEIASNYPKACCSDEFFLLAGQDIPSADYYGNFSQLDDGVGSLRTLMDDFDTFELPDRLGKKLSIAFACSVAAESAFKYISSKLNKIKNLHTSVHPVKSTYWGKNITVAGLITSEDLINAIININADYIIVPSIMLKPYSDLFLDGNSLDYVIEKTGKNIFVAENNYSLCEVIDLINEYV

csDUF512 = biological target: T3, csDUF512 (Clostridium sporogenes, UniProt Z9WP26CAS3); assay: as above; format: biochemical; conditions: titanium(III) citrate, 5 min
T3 construct: full length, 444 residues (1-443 modelled); E. coli, SUMO tag cut with Ulp1; monomer; [4Fe-4S]; codon-optimized gene
T3 sequence (Z9WP26CAS3 1-443): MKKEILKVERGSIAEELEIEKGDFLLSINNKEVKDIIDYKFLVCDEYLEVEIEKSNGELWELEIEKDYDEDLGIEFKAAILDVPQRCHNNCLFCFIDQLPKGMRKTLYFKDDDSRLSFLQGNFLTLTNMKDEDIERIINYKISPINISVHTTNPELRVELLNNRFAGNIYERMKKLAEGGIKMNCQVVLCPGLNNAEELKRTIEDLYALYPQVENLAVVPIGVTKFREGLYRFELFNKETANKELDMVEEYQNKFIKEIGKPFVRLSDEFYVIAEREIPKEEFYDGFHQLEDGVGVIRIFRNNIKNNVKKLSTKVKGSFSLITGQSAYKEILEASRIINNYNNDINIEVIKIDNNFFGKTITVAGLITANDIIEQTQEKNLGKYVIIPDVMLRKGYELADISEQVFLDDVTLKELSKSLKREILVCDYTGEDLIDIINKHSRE

Nc1ncnc2c1ncn2[C@@H]1O[C@H](CSCC[C@H](N)C(=O)O)[C@@H](O)[C@H]1O [SAH, S-adenosylhomocysteine]
X-ray crystal structure (pfDUF512 [1]): pfDUF512 was crystallized under anoxic conditions in the presence of SAH

C[S+](CC[C@H](N)C(=O)O)C[C@H]1O[C@@H](n2cnc3c(N)ncnc32)[C@H](O)[C@@H]1O (stereo partly shown) [SAM, S-adenosylmethionine]
methylation of bound cobalamin, MeCbl and 5'-dA detected (pfDUF512 [2]): Upon incubating the four DUF512 proteins with SAM and titanium(III) citrate | methylation of bound cobalamin, MeCbl, SAH and 5'-dA quantified (acDUF512): Upon incubating the four DUF512 proteins with SAM and titanium(III) citrate | methylation of bound cobalamin, MeCbl, SAH and 5'-dA quantified (csDUF512): Upon incubating the four DUF512 proteins with SAM and titanium(III) citrate
